For six compounds, TGI results are on record in PubChem BioAssay (NCI).

Some test systems named below: SK-MEL-2 melanoma; PC-3 prostate; CAKI-1 renal; MCF7 breast; M14 melanoma; HCT-15 colon; HCT-116 colon; DU-145 prostate; OVCAR-8 ovarian; MOLT-4 leukemia; T-47D breast; BT-549 breast; RPMI-8226 leukemia; A549 NSCLC; ACHN renal; SW-620 colon; NCI-H23 lung; SN12C renal; OVCAR-4 ovarian; HT29 colon.
Holding throughout (experiment): inhibition of tumour cell growth, NCI panel, 48 h

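Test compounds were applied to cells in 96-well plates for 48 hours at 5 doses. The concentration for full growth arrest is given as TGI.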 Bounds are passed on as bounds.

For the compound `N#C[C@@H](c1ccccn1)c1ncccc1[N+](=O)[O-]`, the TGI with SK-MEL-2 melanoma, with PC-3 prostate, in the test with CAKI-1 renal, in the test with MCF7 breast, in the test with M14 melanoma and in the test on HCT-15 colon was greater than 100 µM each time. Moreover, the TGI in the test with HCT-116 colon, with DU-145 prostate, in the test on OVCAR-8 ovarian, in the test with MOLT-4 leukemia, with T-47D breast and in the test on BT-549 breast was greater than 100 µM each time. The TGI with RPMI-8226 leukemia, in the test on A549 NSCLC, with ACHN renal, in the test with SW-620 colon, in the test on NCI-H23 lung and in the test with SN12C renal was greater than 100 µM throughout. Moreover, the TGI with OVCAR-4 ovarian and with HT29 colon was greater than 100 µM in each case.
In the case of `CCCCCCCCCCCC(=O)OCC(C[As](=O)(O)O)OC(=O)CCCCCCCCCCC` (stereo not given), the TGI in the test with SK-MEL-2 melanoma was determined as 12.1 µM; in the test on PC-3 prostate, 9.52 µM; in the test with CAKI-1 renal, 21.7 µM; in the test on MCF7 breast, 13 µM; in the test on M14 melanoma, 4.48 µM; with HCT-15 colon it was 25.5 µM. The TGI is 18.3 µM in the test with HCT-116 colon; 35.6 µM in the test with DU-145 prostate; 24.8 µM in the test with OVCAR-8 ovarian; greater than 41.6 µM in the test on MOLT-4 leukemia; 42.3 µM with T-47D breast; 23.3 µM with BT-549 breast. For the same compound, the TGI in the test with RPMI-8226 leukemia was greater than 62 µM; in the test with A549 NSCLC, 25.8 µM; with ACHN renal, 5.04 µM; in the test with SW-620 colon, 26.8 µM; in the test on NCI-H23 lung it was 18 µM; in the test on SN12C renal, 8.27 µM. Moreover, the TGI with OVCAR-4 ovarian was found to be 33.3 µM; in the test on HT29 colon it was 20.2 µM.
Consider `CCOC(=O)c1c(N2CCOCC2)[nH]c(=O)c(C(c2c(Cl)cccc2Cl)c2c(O)c(C(=O)OCC)c(N3CCOCC3)[nH]c2=O)c1O`, for which the TGI with SK-MEL-2 melanoma was 16.2 µM; with PC-3 prostate, 29.1 µM; in the test with CAKI-1 renal it was 5.24 µM; with MCF7 breast, 6.63 µM; in the test with M14 melanoma, 5.15 µM; with HCT-15 colon, 15.6 µM. The TGI with HCT-116 colon was determined as 8.83 µM; in the test on DU-145 prostate it was 24.6 µM; with OVCAR-8 ovarian it was 20.5 µM; in the test with MOLT-4 leukemia, 5.51 µM; in the test with T-47D breast it was 13.2 µM; with BT-549 breast, 19.6 µM. For the same compound, the TGI with RPMI-8226 leukemia was 5.27 µM; in the test with A549 NSCLC, 32.5 µM; with ACHN renal, 13 µM; in the test with SW-620 colon, 3.11 µM; in the test with NCI-H23 lung it was 21.8 µM; with SN12C renal it was 11.4 µM. Further, the TGI came to 24.1 µM in the test with OVCAR-4 ovarian and 12.9 µM with HT29 colon.
For `C=CCCC1(CC(Sc2ccccc2)P(=O)(c2ccccc2)c2ccccc2)OCCO1` (stereo not given), the TGI in the test on SK-MEL-2 melanoma, with PC-3 prostate, in the test on CAKI-1 renal, with MCF7 breast, in the test on M14 melanoma and with HCT-15 colon was greater than 10 µM throughout. Further, the TGI with HCT-116 colon, with DU-145 prostate, in the test on OVCAR-8 ovarian, in the test on MOLT-4 leukemia, in the test with T-47D breast and with BT-549 breast was greater than 10 µM each time. The TGI with RPMI-8226 leukemia, in the test on A549 NSCLC, in the test on ACHN renal, with SW-620 colon, in the test on NCI-H23 lung and in the test with SN12C renal was greater than 10 µM throughout. The TGI with OVCAR-4 ovarian and in the test with HT29 colon was greater than 10 µM throughout.
As for `CCN1CCN(c2nc3ccccc3c3c2CCOc2ccccc2-3)CC1`, the TGI in the test on SK-MEL-2 melanoma was greater than 67.4 µM; in the test on PC-3 prostate it was greater than 90.9 µM; in the test with CAKI-1 renal, greater than 55.3 µM; with MCF7 breast it was greater than 56.5 µM; with M14 melanoma it was 38.4 µM; in the test on HCT-15 colon it was 40.1 µM. For the same compound, the TGI with HCT-116 colon was greater than 59 µM; in the test on DU-145 prostate it was greater than 31.6 µM; with OVCAR-8 ovarian it was greater than 75.5 µM; with MOLT-4 leukemia, greater than 56 µM; with T-47D breast, greater than 69.8 µM; in the test with BT-549 breast it was greater than 100 µM. The TGI was 50 µM in the test on RPMI-8226 leukemia; greater than 69.3 µM in the test on A549 NSCLC; greater than 100 µM in the test with ACHN renal; greater than 67.5 µM in the test on SW-620 colon; greater than 100 µM with NCI-H23 lung; greater than 84 µM in the test on SN12C renal. Moreover, the TGI with OVCAR-4 ovarian was greater than 100 µM; in the test with HT29 colon it was greater than 51.5 µM.
In the case of `C[N+]1(C)CCc2cc(O)c(O)cc2C1Cc1ccc(O)c(O)c1` (stereo not given), the TGI was greater than 100 µM in the test with SK-MEL-2 melanoma; greater than 100 µM in the test on PC-3 prostate; greater than 100 µM in the test on CAKI-1 renal; 43.3 µM with MCF7 breast; greater than 100 µM with M14 melanoma; greater than 100 µM in the test on HCT-15 colon. The TGI is 47.8 µM in the test on HCT-116 colon; greater than 100 µM in the test with DU-145 prostate; greater than 100 µM in the test on OVCAR-8 ovarian; 68.8 µM in the test on MOLT-4 leukemia; 54.7 µM with T-47D breast; greater than 100 µM in the test with BT-549 breast. Also, the TGI was 65.9 µM in the test on RPMI-8226 leukemia; greater than 100 µM in the test with A549 NSCLC; greater than 100 µM with ACHN renal; 76.7 µM in the test with SW-620 colon; greater than 100 µM in the test with NCI-H23 lung; greater than 100 µM in the test on SN12C renal. The TGI was 45.6 µM in the test with OVCAR-4 ovarian and greater than 100 µM in the test with HT29 colon.
